“Also recorded” adds a separate entry of the source. In the oligonucleotide strings, read from the 5' end, every base follows the letter of its sugar. An asterisk marks phosphorothioate; unmarked linkages are phosphodiester. Other units and linkages are bracketed, terminal groups are in braces. A string of capitals states the bases alone. d = 2'-deoxy (DNA); m = 2'-O-methyl
Tests used:
TLR7 = target: T1, TLR7 (Mus musculus, UniProt P58681); assay: B-406-AS ssRNA-induced TNFα in primary BMDMs; conditions: WT primary BMDMs; 100 nM ASO 1 h; 250 nM B-406-AS RNA overnight; vs dC20 co-treatment
T1 sequence (P58681 27-1050): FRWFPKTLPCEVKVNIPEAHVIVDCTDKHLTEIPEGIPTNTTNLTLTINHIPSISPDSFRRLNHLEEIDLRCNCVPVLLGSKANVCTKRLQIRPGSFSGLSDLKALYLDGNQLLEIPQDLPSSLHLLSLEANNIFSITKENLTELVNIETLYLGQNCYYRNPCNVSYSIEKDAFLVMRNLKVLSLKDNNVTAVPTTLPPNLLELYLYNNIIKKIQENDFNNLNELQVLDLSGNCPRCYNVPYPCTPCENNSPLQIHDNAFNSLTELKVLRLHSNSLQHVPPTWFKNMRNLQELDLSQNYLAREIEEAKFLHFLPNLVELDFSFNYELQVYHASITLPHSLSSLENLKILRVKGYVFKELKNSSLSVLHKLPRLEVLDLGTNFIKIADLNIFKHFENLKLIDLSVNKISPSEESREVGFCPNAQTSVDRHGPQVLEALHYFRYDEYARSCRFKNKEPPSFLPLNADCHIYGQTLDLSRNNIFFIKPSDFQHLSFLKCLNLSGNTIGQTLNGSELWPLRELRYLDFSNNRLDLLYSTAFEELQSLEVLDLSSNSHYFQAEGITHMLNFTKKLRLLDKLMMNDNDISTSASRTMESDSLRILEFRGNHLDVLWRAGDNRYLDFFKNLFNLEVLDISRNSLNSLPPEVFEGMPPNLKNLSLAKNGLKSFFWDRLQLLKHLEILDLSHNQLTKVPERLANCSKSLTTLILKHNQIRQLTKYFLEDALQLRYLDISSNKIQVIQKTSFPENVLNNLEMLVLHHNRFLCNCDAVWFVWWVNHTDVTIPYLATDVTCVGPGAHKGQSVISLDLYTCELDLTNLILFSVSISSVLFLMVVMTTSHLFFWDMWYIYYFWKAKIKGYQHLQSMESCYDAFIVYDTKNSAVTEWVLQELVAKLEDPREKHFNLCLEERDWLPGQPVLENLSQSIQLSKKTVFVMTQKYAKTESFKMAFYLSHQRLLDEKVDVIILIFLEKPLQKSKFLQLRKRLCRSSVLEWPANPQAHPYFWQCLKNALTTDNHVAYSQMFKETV

[1] = test system: primary fibroblast-like synoviocytes (FLS) and bone marrow-derived MSCs; assay: Senescence β-galactosidase staining of primary FLS and MSCs; conditions: naked ASO 1 to 5 μM for one to two weeks; listed as C2-Mutl
cGAS [2] = target: cGAS (Mus musculus, UniProt Q8C6L5); assay: ISD-driven IP-10 production in immortalised mouse BMDMs; format: cell-based; set-up: endogenous in cells; host or cells: immortalised wild-type mouse bone marrow macrophages (iBMDMs); conditions: iBMDMs; 500 nM ASO; ISD overnight
Chain of cGAS (Mus musculus, UniProt Q8C6L5) (Q8C6L5 whole entry): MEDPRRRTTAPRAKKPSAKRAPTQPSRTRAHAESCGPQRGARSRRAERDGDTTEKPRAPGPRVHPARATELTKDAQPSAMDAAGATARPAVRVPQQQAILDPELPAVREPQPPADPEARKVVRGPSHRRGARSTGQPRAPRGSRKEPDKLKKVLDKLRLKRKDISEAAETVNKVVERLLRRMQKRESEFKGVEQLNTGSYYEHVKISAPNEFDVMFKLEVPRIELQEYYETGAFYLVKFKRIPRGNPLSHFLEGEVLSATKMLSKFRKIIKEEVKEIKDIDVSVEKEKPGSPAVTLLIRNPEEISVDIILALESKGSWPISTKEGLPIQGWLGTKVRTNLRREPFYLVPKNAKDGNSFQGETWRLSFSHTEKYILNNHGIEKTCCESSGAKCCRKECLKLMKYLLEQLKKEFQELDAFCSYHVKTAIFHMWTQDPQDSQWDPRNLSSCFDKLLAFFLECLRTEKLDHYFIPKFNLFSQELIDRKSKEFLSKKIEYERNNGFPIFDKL

cGAS [3] = target: cGAS (Homo sapiens, UniProt Q8N884); assay: IFN-driven gene expression in BJ hTERT SV40T fibroblasts (constitutive cGAS activation), RT-qPCR; conditions: ASO transfected 20-100 nM overnight
Chain of cGAS (Homo sapiens, UniProt Q8N884) (Q8N884 whole entry): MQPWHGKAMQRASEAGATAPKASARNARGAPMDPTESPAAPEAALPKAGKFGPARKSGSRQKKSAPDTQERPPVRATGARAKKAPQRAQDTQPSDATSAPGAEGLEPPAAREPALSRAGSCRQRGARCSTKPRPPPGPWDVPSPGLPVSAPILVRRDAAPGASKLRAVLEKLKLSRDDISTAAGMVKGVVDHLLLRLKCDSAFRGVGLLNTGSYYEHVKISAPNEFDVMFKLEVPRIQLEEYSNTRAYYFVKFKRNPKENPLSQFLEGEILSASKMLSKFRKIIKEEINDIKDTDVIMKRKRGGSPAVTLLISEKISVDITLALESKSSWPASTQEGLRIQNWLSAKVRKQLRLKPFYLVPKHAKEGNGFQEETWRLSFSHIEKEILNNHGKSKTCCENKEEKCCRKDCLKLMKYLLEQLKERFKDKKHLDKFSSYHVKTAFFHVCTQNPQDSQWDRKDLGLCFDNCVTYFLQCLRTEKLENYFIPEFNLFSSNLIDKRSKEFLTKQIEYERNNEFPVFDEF

| Substance | TNFα production induced by ssRNA sensing (in words) (TLR7) | senescence-associated β-galactosidase (SAB) positive cells (in words) [1] | ISD-induced IP-10 in immortalised mouse BMDMs (in words) (cGAS [2]) | inhibition of constitutively expressed ISGs (IFIT1, IFIT2, IFI44; in words) (cGAS [3]) |
| --- | --- | --- | --- | --- |
| mG*mC*mG*mG*mU*A*T*C*C*A*T*G*T*C*C*mC*mA*mG*mG*mC (mG*mC*mG*mG*mU*dA*dT*dC*dC*dA*dT*dG*dT*dC*dC*mC*mA*mG*mG*mC; antisense) [C2-Mut1] | significantly reduced TNFα production | senescence was strongly reduced; also recorded: more potent inhibitor of SAB than A151 | significantly impacting ISD sensing | significantly more potent than its two nucleotide variant C2-Mut1v3 |
| mG*mG*mU*A*T*C*C*C*C*C*C*C*C*C*C*C*C*C*C*C (GGUATCCCCCCCCCCCCCCC; antisense; sugars from the 5' end m3 d17, all phosphorothioate, methylation of C not given here) [[C2]Mut1-dC] | significantly reduced TNFα production | – | – | – |
